According to ChEMBL document CHEMBL1201862, “PubChem BioAssay data set” (2004):
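Results reflect a 48-hour exposure of cells in 96-well plates to compound at five concentrations. At the GI50, growth is halved.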 Active and inactive are the calls of the source. No stated cut-off is given here; in the data, active = GI50 up to about 1.1 µM and inactive = higher.

Columns and labels:
Test in all cases: inhibition of tumour cell growth, NCI panel, 48 h
A498 = system: A498
CAKI-1 = system: CAKI-1
HCT-15 = system: HCT-15
SK-MEL-28 = system: SK-MEL-28
U-251 = system: U-251
M14 = system: M14
SF-295 = system: SF-295
MOLT-4 = system: MOLT-4
HL-60 = system: HL-60
NCI-H23 = system: NCI-H23
NCI-H522 = system: NCI-H522
786-0 = system: 786-0
MDA-N = system: MDA-N
UACC-62 = system: UACC-62
OVCAR-4 = system: OVCAR-4
COLO 205 = system: COLO 205
OVCAR-3 = system: OVCAR-3
SN12C = system: SN12C
K562 = system: K562
HCC 2998 = system: HCC 2998

Compound | GI50 (A498) | GI50 (CAKI-1) | GI50 (HCT-15) [µM] | GI50 (SK-MEL-28) | GI50 (U-251) | GI50 (M14) | GI50 (SF-295) | GI50 (MOLT-4) | GI50 (HL-60) | GI50 (NCI-H23) | GI50 (NCI-H522) | GI50 (786-0) | GI50 (MDA-N) | GI50 (UACC-62) | GI50 (OVCAR-4) | GI50 (COLO 205) | GI50 (OVCAR-3) | GI50 (SN12C) | GI50 (K562) | GI50 (HCC 2998)
Cc1nc(O)c2c3c(sc2n1)CCCC3 | > 100 µM (inactive) | > 100 µM (inactive) | > 100 | > 100 µM (inactive) | 66.2 µM (inactive) | > 100 µM (inactive) | > 100 µM (inactive) | > 100 µM (inactive) | > 100 µM (inactive) | > 100 µM (inactive) | > 100 µM (inactive) | 35.9 µM (inactive) | 87.7 µM (inactive) | 58.2 µM (inactive) | > 100 µM (inactive) | > 100 µM (inactive) | > 100 µM (inactive) | 51.5 µM (inactive) | 96.6 µM (inactive) | 
CCOc1ccc2c(ccc(/C=C/c3cc(C)c4cccnc4c3O)[n+]2C)c1 | 1.67 µM (inactive) | 4.29 µM (inactive) | 3.66 | 0.792 µM (active) | 0.18 µM (active) | 0.836 µM (active) | 1.24 µM (inactive) | 0.158 µM (active) | 0.141 µM (active) | 1.08 µM (active) | 0.583 µM (active) | 0.53 µM (active) |  | 1.53 µM (inactive) | 1.7 µM (inactive) | 0.624 µM (active) | 0.129 µM (active) | 0.274 µM (active) | 0.495 µM (active) | 0.746 µM (active)
CC(=O)c1c(O)cc(O)c(-c2c(C)cc(O)c3c2C(=O)c2cccc(O)c2C3=O)c1O | 15.6 µM (inactive) |  | 14.1 | 20.7 µM (inactive) | 14 µM (inactive) | 20.3 µM (inactive) | 13.1 µM (inactive) | 10.8 µM (inactive) | 23.2 µM (inactive) |  | 10 µM (inactive) | 17.1 µM (inactive) | 16 µM (inactive) | 14.5 µM (inactive) | 10.8 µM (inactive) |  | 17.6 µM (inactive) | 19.1 µM (inactive) | 19.4 µM (inactive) | 
Cc1cc(=O)oc2cc(OCc3nc4ccccc4c(=O)[nH]3)ccc12 | > 100 µM (inactive) | > 100 µM (inactive) | > 100 | > 100 µM (inactive) | > 100 µM (inactive) | > 100 µM (inactive) | > 100 µM (inactive) | > 100 µM (inactive) | > 100 µM (inactive) | > 100 µM (inactive) | > 100 µM (inactive) | > 100 µM (inactive) |  | > 100 µM (inactive) | > 100 µM (inactive) | > 100 µM (inactive) | > 100 µM (inactive) | > 100 µM (inactive) | > 100 µM (inactive) | > 100 µM (inactive)
COc1cc(COC(=O)N2CSCC2C(=O)O)c([N+](=O)[O-])cc1OC (stereo not drawn) |  |  | > 100 |  | > 100 µM (inactive) | > 100 µM (inactive) | > 100 µM (inactive) | > 100 µM (inactive) | > 100 µM (inactive) | > 100 µM (inactive) |  | > 100 µM (inactive) | > 100 µM (inactive) | > 100 µM (inactive) |  |  | > 100 µM (inactive) | > 100 µM (inactive) | > 100 µM (inactive) | > 100 µM (inactive)
CCOC(=O)CC(=O)N(c1ccc(OC)cc1)C(C(=O)OC)c1ccccc1 (stereo not drawn) |  | > 100 µM (inactive) | > 100 | > 100 µM (inactive) |  | > 100 µM (inactive) | > 100 µM (inactive) |  |  | > 100 µM (inactive) | > 100 µM (inactive) | > 100 µM (inactive) | > 100 µM (inactive) | > 100 µM (inactive) |  | > 100 µM (inactive) | > 100 µM (inactive) | > 100 µM (inactive) | > 100 µM (inactive) | 
CN(/N=C/c1ccccc1O)c1ccc2ccccc2n1 | 20 µM (inactive) | 33.9 µM (inactive) | 12.5 | 65.9 µM (inactive) | 16.3 µM (inactive) | 27.1 µM (inactive) | 16.2 µM (inactive) | 24 µM (inactive) | 81.7 µM (inactive) | 17.1 µM (inactive) | 24.9 µM (inactive) | 17.7 µM (inactive) | 52.2 µM (inactive) | 35.2 µM (inactive) | 20.3 µM (inactive) | 56.1 µM (inactive) | 19.5 µM (inactive) | 32.4 µM (inactive) | 60.3 µM (inactive) | 
O=C(O)C1C2CCC(O2)C1C(=O)NCc1cccnc1 (stereo not drawn) | > 100 µM (inactive) | > 100 µM (inactive) | > 100 | > 100 µM (inactive) | > 100 µM (inactive) | > 100 µM (inactive) | > 100 µM (inactive) |  |  | > 100 µM (inactive) | > 100 µM (inactive) | > 100 µM (inactive) | > 100 µM (inactive) | > 100 µM (inactive) | > 100 µM (inactive) | > 100 µM (inactive) | > 100 µM (inactive) | > 100 µM (inactive) |  | 
O=C(OCc1ccccc1)n1cccc1 | > 100 µM (inactive) | > 100 µM (inactive) |  | > 100 µM (inactive) | > 100 µM (inactive) | > 100 µM (inactive) | > 100 µM (inactive) | 76.9 µM (inactive) | 57.4 µM (inactive) | 98.6 µM (inactive) | > 100 µM (inactive) | > 100 µM (inactive) |  | > 100 µM (inactive) | > 100 µM (inactive) | > 100 µM (inactive) | > 100 µM (inactive) | > 100 µM (inactive) | 97.1 µM (inactive) | > 100 µM (inactive)
CN(C)C(=S)Nc1nnc(NC23CC4CC(CC(C4)C2)C3)s1.[O-][Cl+3]([O-])([O-])O | 15 µM (inactive) | 20.1 µM (inactive) | 13.6 | 15 µM (inactive) | 12.2 µM (inactive) | 16 µM (inactive) | 13.8 µM (inactive) | 14.8 µM (inactive) | 7.57 µM (inactive) | 10 µM (inactive) | 16.1 µM (inactive) | 16.6 µM (inactive) |  | 16.5 µM (inactive) | 16.1 µM (inactive) | 19.8 µM (inactive) | 18.7 µM (inactive) | 15.3 µM (inactive) | 15.8 µM (inactive) | 18.9 µM (inactive)
CCN(CC)CCC(=O)c1ccc(Oc2ccc(C)cc2)cc1 |  | 17.3 µM (inactive) | 18.7 | 16.9 µM (inactive) | 17 µM (inactive) | 16.6 µM (inactive) | 17.5 µM (inactive) | 21.6 µM (inactive) |  | 17.7 µM (inactive) |  | 16.5 µM (inactive) | 17.7 µM (inactive) | 17.3 µM (inactive) | 24.4 µM (inactive) | 23.4 µM (inactive) | 17.6 µM (inactive) | 16.7 µM (inactive) | 30.5 µM (inactive) | 19.2 µM (inactive)
COc1cc(/C=C2\NC(=O)C3Cc4c(OC)c(C)c(OC)c(OC)c4C2N3C)c(OC)c(C)c1OC (stereo not drawn) | > 100 µM (inactive) | > 100 µM (inactive) |  | > 100 µM (inactive) | > 100 µM (inactive) | > 100 µM (inactive) | > 100 µM (inactive) | 44.2 µM (inactive) | > 100 µM (inactive) | > 100 µM (inactive) | 99.5 µM (inactive) | > 100 µM (inactive) |  | > 100 µM (inactive) | > 100 µM (inactive) | > 100 µM (inactive) | > 100 µM (inactive) | > 100 µM (inactive) | > 100 µM (inactive) | > 100 µM (inactive)
COc1cccc(N2C(=O)/C(=C/c3ccc(N(CCC#N)CCC#N)cc3)N=C2c2cc([N+](=O)[O-])ccc2Cl)c1 | > 100 µM (inactive) | > 100 µM (inactive) | 50.4 | > 100 µM (inactive) | 59.2 µM (inactive) | 42.8 µM (inactive) | 19.7 µM (inactive) | 22.3 µM (inactive) | 49.8 µM (inactive) | 89.1 µM (inactive) | 55.8 µM (inactive) | 30.5 µM (inactive) |  | 39.1 µM (inactive) | > 100 µM (inactive) | 14.7 µM (inactive) | 35.6 µM (inactive) | 87.7 µM (inactive) | 34.5 µM (inactive) | 60.5 µM (inactive)
CSc1nc2c(nc(N)n2C2OC(CO)C(O)C(O)C2O)c(=O)[nH]1 (stereo not drawn) | > 100 µM (inactive) | > 100 µM (inactive) |  | > 100 µM (inactive) | > 100 µM (inactive) | > 100 µM (inactive) | > 100 µM (inactive) | > 100 µM (inactive) | > 100 µM (inactive) | > 100 µM (inactive) | > 100 µM (inactive) | > 100 µM (inactive) |  | > 100 µM (inactive) | > 100 µM (inactive) | > 100 µM (inactive) | > 100 µM (inactive) | > 100 µM (inactive) | > 100 µM (inactive) | > 100 µM (inactive)
O=c1[nH]c(=O)n(C2OC(COP(=O)(O)OP(=O)(O)OC3OC(CO)C(O)C(O)C3O)C(O)C2O)cc1F (stereo not drawn) | 0.239 µM (active) | 0.109 µM (active) | 0.0384 | 0.229 µM (active) | 0.0577 µM (active) | 0.234 µM (active) | 0.127 µM (active) | 0.0522 µM (active) | 0.065 µM (active) | 0.147 µM (active) | 0.327 µM (active) | 0.0526 µM (active) |  | 0.307 µM (active) | 1.26 µM (inactive) | 0.0984 µM (active) | 0.552 µM (active) | 0.0809 µM (active) | 0.0302 µM (active) | 0.116 µM (active)
CC1=C2C(=CC(C)(C)C2O)C(=O)C(C)(O)C12CC2 (stereo not drawn) | 0.0279 µM (active) | 0.00552 µM (active) | 0.00393 | 0.0247 µM (active) | 0.0059 µM (active) | 0.0158 µM (active) | 0.00724 µM (active) | 0.00253 µM (active) | 0.00345 µM (active) | 0.00681 µM (active) | 0.00469 µM (active) | 0.00759 µM (active) |  | 0.0116 µM (active) | 0.00513 µM (active) | 0.0138 µM (active) | 0.0112 µM (active) | 0.0189 µM (active) | 0.00558 µM (active) | 0.00541 µM (active)
